Molecules are shown by their SMILES. Read-outs that look alike come from different tables or passages of the source. Marks after values point to notes of the source that are not given here. Bounds are passed on as bounds.

The source of these data is patent US8350076B2, “Sodium channel blockers” (University of Virginia Patent Foundation, priority 2002, dated 2013).

The subject of one series is DU-145. The series can be described thus: Long-term growth assay (crystal violet), DU-145. Format: cell-based. The following applies: Homo sapiens, DU-145, 120 h; day 5; read-out: Day Five Effects on Cell line IC50 (μM) ± S.E.M., DU-145. On the procedure:
(§1) C4-2 cells were plated at cell densities established previously to reach saturation at day 7. The cells were allowed to recover overnight before a media change with the analogues (all at 40 μM) was performed. The assays were terminated at day 1, 3, 5 and 7. Media changes were performed on day 0, 2, 4 and 6 with fresh analogues added each time. The cells were then fixed with glutaraldehyde and stained with crystal violet. The dye is then eluted in Sorenson's solution and the absorbance read at 540 nm. […] These assays were repeated for DU145, PC-3 and the paired metastatic cell line PC-3M. The data were normalized to the day 7 DMSO control for each cell line to allow for direct cell:cell comparison.

In another series the test system is C4-2 cells. The series can be described thus: Long-term growth assay (crystal violet), C4-2. Format: cell-based, human. The following applies: for growth of C4-2 cells (in words): 40 μM, 7 days with drug; for IC50: Homo sapiens, C4-2, 120 h, day 5, read-out: Day Five Effects on Cell line IC50 (μM) ± S.E.M., C4-2. On the procedure:
as §1

The next series has as its system PC-3M. The series can be described thus: Long-term growth assay (crystal violet), PC-3M. The format is cell-based. The following applies: Homo sapiens, 120 h, day 5, read-out: Day Five Effects on Cell line IC50 (μM) ± S.E.M., PC-3M. On the procedure: as §1
Series [1] has as its system PSA secretion by PCa C4-2 cells. The series can be described thus: PSA secretion by PCa C4-2 cells. The format is cell-based, human. The following applies: for decrease of PSA secretion on a per cell basis: 40 μM. The method, then: PSA levels are clinically important in following tumor progression and burden. Sodium channel blockers 1, 2 and 44 (at 40 μM) and phenyloin at (100 μM) were investigated for their ability to suppress PSA secretion by PCa C4-2 cells.

Series [2] has as its system all PCa cell lines tested (C4-2, DU145, PC-3, PC-3M). The series can be described thus: Long-term growth assay, panel of PCa cell lines. The format is cell-based, human. On the procedure:
as §1

For the next series, the system named is LNCaP. The series can be described thus: Long-term growth assay (crystal violet), LNCaP. Format: cell-based. The following applies: Homo sapiens, 120 h, day 5, read-out: Day Five Effects on Cell line IC50 (μM) ± S.E.M., LNCaP.
A further series concerns PC3. The series can be described thus: Long-term growth assay (crystal violet), PC3. The settings on record: Homo sapiens, PC-3, 120 h; day 5; read-out: Day Five Effects on Cell line IC50 (μM) ± S.E.M., PC3. Format: cell-based. The method, then:
as §1

Series [3] deals with anchorage-independent colony formation. The series can be described thus: Soft agarose colony formation (SACF), 3-D growth. Format: cell-based. The settings on record: for inhibition in 3-D growth (SACF) as compared to phenytoin: same concentration as 2-D.
A further series relates to cell growth in 2-D. The series can be described thus: 2-D growth assay. The format is cell-based. The following applies: molar equivalence to the phenytoin IC50.
Series [4] concerns sodium channel (BTX site 2). The series can be described thus: 3H-BTX-B binding inhibition. The following applies: for IC50: 3H-BTX-B Inhibition Data. An excerpt:
One assay used to screen compounds for modulators of sodium channel activity, is based on the use of the radioligand 3-[H]-BTX-B assay. BTX binds to site 2 on the channel protein and thus compounds that can compete with or inhibit BTX binding to the sodium channel are potential sodium channel inhibitors. This assay represents a facile tool to prescreen sodium channel binding before evaluating compounds in more rigorous functional assays such as through electrophysiology.

The subject of series [5] is PC-3 cells. The series can be described thus: 3H-thymidine uptake (DNA synthesis) in PC-3 cells. The format is cell-based, human. The following applies: for inhibition at 1 µM / inhibition at 10 µM / inhibition at 20 µM / inhibition at 40 µM / inhibition at 100 µM: Homo sapiens, read-out: % Inhibition of PC3 Cells; for inhibition at 1 µM: PC-3, 1 μM; for inhibition at 10 µM: PC-3, 10 μM; for inhibition at 20 µM: PC-3, 20 μM; for inhibition at 40 µM: PC-3, 40 μM; for inhibition at 100 µM: PC-3, 100 μM; for effect on DNA synthesis (in words): dosages tested 1-100 μM. On the procedure:
The novel sodium channel blockers were assayed for activity against paired sets of cell lines with increasing metastatic potential, PC-3 and PC-3M (already androgen independent, AI), or increasing metastatic potential with increasing androgen independence, LNCaP and C4-2. DU145 was also included to provide another AI cell line with intermediate tumorigenicity between the LNCaP series and the PC-3 derivatives. This strategy allows an examination of at least three different genotypes for comparison of drug efficacy. […] The first assay used to screen these compounds was 3H-thymidine uptake in PC-3 cells. The cells were trypsinized, equal cell numbers were placed into each well and allowed to recover overnight.

A further series addresses Nav1.5 (Homo sapiens, UniProt Q14524). The series can be described thus: Electrophysiology, sodium currents in CHO cells stably expressing Nav1.5.
The test system of series [6] is PC-3 cells. The following applies: cited from earlier work.
For a further series, the system named is MAT-LyLu cells. The following applies: 6 µM; cited from earlier work.

Chain of Nav1.5 (Q14524 whole entry): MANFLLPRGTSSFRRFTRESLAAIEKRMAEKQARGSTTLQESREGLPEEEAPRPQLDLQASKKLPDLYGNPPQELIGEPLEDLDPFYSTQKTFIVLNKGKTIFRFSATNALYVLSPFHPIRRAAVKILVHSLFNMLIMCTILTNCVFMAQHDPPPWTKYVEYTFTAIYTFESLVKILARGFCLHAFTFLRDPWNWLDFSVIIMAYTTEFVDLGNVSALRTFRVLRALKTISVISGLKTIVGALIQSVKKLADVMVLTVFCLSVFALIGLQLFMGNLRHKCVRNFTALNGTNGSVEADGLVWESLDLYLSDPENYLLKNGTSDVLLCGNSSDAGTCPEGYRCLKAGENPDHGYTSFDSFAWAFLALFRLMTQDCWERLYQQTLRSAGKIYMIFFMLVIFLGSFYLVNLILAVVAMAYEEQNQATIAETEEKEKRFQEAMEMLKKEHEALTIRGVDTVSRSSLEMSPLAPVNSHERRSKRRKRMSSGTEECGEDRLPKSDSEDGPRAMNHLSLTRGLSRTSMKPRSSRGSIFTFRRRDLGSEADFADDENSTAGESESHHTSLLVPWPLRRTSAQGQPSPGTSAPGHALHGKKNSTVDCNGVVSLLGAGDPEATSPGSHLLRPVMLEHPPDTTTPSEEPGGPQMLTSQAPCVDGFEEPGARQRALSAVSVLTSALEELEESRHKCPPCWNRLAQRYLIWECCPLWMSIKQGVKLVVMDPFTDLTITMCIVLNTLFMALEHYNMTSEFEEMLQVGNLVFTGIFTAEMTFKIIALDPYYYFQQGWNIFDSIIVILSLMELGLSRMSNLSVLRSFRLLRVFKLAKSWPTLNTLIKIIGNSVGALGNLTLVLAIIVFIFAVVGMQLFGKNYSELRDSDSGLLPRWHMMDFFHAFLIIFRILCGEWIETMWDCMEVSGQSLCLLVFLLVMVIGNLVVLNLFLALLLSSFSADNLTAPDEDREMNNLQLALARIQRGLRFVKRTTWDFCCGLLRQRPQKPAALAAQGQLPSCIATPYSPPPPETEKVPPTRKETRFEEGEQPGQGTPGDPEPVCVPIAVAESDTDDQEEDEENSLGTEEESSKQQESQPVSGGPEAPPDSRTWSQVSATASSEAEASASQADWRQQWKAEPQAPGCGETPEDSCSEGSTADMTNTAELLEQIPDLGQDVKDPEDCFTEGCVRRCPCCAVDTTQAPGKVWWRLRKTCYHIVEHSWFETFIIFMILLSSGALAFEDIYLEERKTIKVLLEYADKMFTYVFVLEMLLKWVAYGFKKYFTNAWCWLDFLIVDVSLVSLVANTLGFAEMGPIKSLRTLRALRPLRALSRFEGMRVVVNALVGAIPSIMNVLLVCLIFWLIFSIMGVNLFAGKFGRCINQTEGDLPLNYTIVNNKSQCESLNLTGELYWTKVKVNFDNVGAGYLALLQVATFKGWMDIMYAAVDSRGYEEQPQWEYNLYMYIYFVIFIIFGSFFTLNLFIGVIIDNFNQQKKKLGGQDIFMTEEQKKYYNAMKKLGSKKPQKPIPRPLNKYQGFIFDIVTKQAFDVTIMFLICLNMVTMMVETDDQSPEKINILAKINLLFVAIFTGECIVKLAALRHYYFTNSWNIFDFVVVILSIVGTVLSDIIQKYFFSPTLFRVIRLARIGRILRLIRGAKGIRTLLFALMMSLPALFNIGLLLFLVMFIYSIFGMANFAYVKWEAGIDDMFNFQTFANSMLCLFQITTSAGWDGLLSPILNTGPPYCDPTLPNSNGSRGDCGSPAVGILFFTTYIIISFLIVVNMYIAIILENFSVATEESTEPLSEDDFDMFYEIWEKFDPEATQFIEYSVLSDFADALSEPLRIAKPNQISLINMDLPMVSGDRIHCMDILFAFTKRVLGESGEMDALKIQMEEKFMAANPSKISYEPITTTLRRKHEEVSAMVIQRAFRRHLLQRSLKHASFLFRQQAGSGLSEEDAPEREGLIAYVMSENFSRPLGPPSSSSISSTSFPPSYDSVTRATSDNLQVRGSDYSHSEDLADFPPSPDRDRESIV

For orientation: IC50 means the midpoint of a concentration-inhibition curve. Consider `CCCCCCCC(O)(C(N)=O)c1cccc(Cl)c1` (stereo not shown) [Compound 1], for which the IC50 is 56 ± 0.7 µM in the series with DU-145; 51.3 ± 0.2 µM in the series on C4-2 cells; 61.9 ± 0.1 µM in the series on PC-3M; approximately 10 µM in series [1] (Homo sapiens, C4-2, dose-response curve, read-out: IC50 for reducing PSA); 72.2 ± 0.1 µM in the series on LNCaP; 66 ± 0.7 µM with PC3. The “growth of C4-2 cells (in words)” value in the series with C4-2 cells is given as “remarkable inhibition of growth”. Moreover, the “decrease of PSA secretion on a per cell basis” value (“decrease … per cell basis” for short) in series [1] amounted to 42.5%. The “Number of mice with impaired balance on the rotating rod/total # of animals tested” value in the series on mice (30 mg/kg i.p., 0.5 hours) is listed as 0/4; in the series with mice (30 mg/kg i.p., 4.0 hours), 0/2; in the series on mice (100 mg/kg i.p., 0.25 hours) it was 0/4^a; with mice (100 mg/kg i.p., 0.5 hours) it was 1/8; in the series with mice (100 mg/kg i.p., 1.0 hours) it was 1/8; in the series with mice (300 mg/kg i.p., 0.5 hours), 3/4. Further, in the series on mice (300 mg/kg i.p., 4.0 hours), the “Number of mice with impaired balance on the rotating rod/total # of animals tested” value was 0/2. Also, the tolerated dose entry in the series with mice (mice, i.p., acute) is recorded as “up to 300 mg/kg”. Further, the “cells' growth, % of controls (maximum inhibition)” value in series [2] (normalized to day 7 DMSO control) is given as 20-25 % of controls. Further, the “inhibition in 3-D growth (SACF) as compared to phenytoin” value in series [3] is on record as “approximately 87.2%”. In the series on cell growth in 2-D, the “inhibition in 2-D growth assays” value stood at 66.3%.

The term inhibition denotes the relative decrease from the control value, in per cent. As usually defined, the EC50 is the concentration that produces a half-maximal response. Low values mean an effect from little substance, high ones a need for much substance. Take `CCCCCCCC(O)(C(N)=O)c1ccc(Cl)cc1` (stereo not shown) [Compound 2]: in the series on DU-145, the IC50 stood at 67.2 ± 0.1 µM. In addition, in the series on C4-2 cells, the IC50 worked out at 61.1 ± 0.1 µM. Moreover, the “inhibition of 3H-BTX-B binding in comparison to phenytoin” value in series [4] is recorded as “effective inhibition”. In addition, the IC50 in the series with PC-3M was found to be 50 µM. Besides, in the series with PC-3 cells [5], the inhibition at 1 µM was -3.61%, the inhibition at 10 µM was found to be 25.2%, the inhibition at 20 µM stood at 44.6% and the inhibition at 40 µM came to 48.9%. In the series with PC-3 cells [5], the inhibition at 100 µM was 96.2% and the “effect on DNA synthesis (in words)” value is reported as “inhibited DNA synthesis better than phenyloin at all dosages tested”. In addition, the “decrease … per cell basis” value in [1] was found to be 41.8%. On Nav1.5, this compound gave an EC50 of 12.7 ± 2.7 µM. For the same compound, the IC50 in the series with LNCaP is 64.1 ± 4.3 µM. For the same compound, in the series with PC3, the IC50 is 66.8 ± 1.2 µM. In addition, in series [3], the “enhanced inhibition using SACF, % of phenytoin” value is recorded as 41.5 % of phenyloin and the “inhibition in 3-D growth (SACF) as compared to phenytoin” value is approximately 62%. Besides, in the series with cell growth in 2-D, the “inhibition in 2-D growth assays” value came to 42.3%.

Consider `CCCCCCCC(O)(C(N)=O)c1ccc(F)cc1` (stereo not shown) [Compound 9], for which it took 34.2 ± 7.4 µM to reach a half-maximal effect at Nav1.5 (EC50).

`CCCCCCCC1(c2ccccc2)NC(=O)NC1=O` (stereo not shown) [Compound 44]: the IC50 in the series on DU-145 was 35.6 ± 2.6 µM. Further, the IC50 in the series on C4-2 cells is 67.4 ± 1.3 µM. Moreover, in series [4], the “inhibition of 3H-BTX-B binding in comparison to phenytoin” value is recorded as “effective inhibition” and the IC50 turned out to be 5 ± 1 µM. Moreover, the IC50 with PC-3M turned out to be 58.4 µM. The “% Inhibition of PC3 Cells” value in the series with PC-3 cells [5] (40 μM) was 55.09%. In the series with PC-3 cells [5], the inhibition at 1 µM worked out at 12.8%, the inhibition at 10 µM is 26.6%, the inhibition at 20 µM was 32.7% and the inhibition at 40 µM worked out at 55%. Also, in the series on PC-3 cells [5], the inhibition at 100 µM worked out at 82% and the “effect on DNA synthesis (in words)” value is “inhibited DNA synthesis better than phenyloin at all dosages tested”. In series [1], the “decrease … per cell basis” value was 14.9%. The compound further showed an EC50 at Nav1.5 of 29.8 ± 4.2 µM. Further, the “selectivity of growth inhibition (in words)” value in series [2] (long-term growth assay) was “cell selective inhibition of growth”. Moreover, the IC50 with LNCaP came out at 71.8 ± 1.8 µM. The IC50 in the series on PC3 amounted to 66 ± 0.1 µM.

As to `NC1=N[C@H](O)[C@H]2[C@H]3O[C@]4(O)O[C@@H]([C@@H](O)[C@@]2(N1)[C@@H]4O)[C@]3(O)CO` [TTX, Tetrodotoxin], the “reduction of invasiveness of PC-3 cells” value in the series on PC-3 cells [6] was 31%. Also, the “inhibition of invasiveness of MAT-LyLu cells in vitro” value in the series with MAT-LyLu cells was “up to 50%”.

As for `CCN(CC)CC(=O)Nc1c(C)cccc1C` [lidocaine, reference compound], the “growth of C4-2 cells (in words)” value in the series on C4-2 cells is recorded as “mildly stimulatory”.

Take `O=C1NC(=O)C(c2ccccc2)(c2ccccc2)N1` [phenytoin, reference compound]: the IC50 in series [4] was 40 µM. Moreover, in the series with PC-3 cells [5], the inhibition at 1 µM is -23.8%, the inhibition at 10 µM was -13.9%, the inhibition at 20 µM is -21.8% and the inhibition at 40 µM was -12.5%. Also, in the series on PC-3 cells [5], the inhibition at 100 µM came to 30.8% and the “effect on DNA synthesis (in words)” value is on record as “stimulatory”. For the same compound, in series [1] (Homo sapiens, C4-2, 100 μM), the inhibition at 100 µM is 17.8%. This compound also showed an EC50 at Nav1.5 of more than 200 µM. The “inhibition of SACF compared to the DMSO/EtOH control plates” value in series [3] was 25.7%.
